Data reported in patent US20220409570A1, “COMPOSITION OF N-PALMITOYL-ETHANOLAMIDE AND BAICALEIN IN CO-MICRONIZED FORM” (EPITECH GROUP S.P.A., priority 2021, published 2022).

Columns and labels:
Assay type in all cases: in vivo, Male Sprangue Dawley rats
DHT = assay: Serum DHT levels (ELISA) in rats with testosterone propionate-induced BPH; conditions: per os daily for 14 days, co-micronized PEA-Baicalein 10 mg/kg (9:1), um-PEA 9 mg/kg, Baicalein 1 mg/kg, vs BPH+vehicle, FIG. 2A
Text: (§1) Male Sprangue Dawley rats (200-250 gr, Envigo, Italy) fed ad libitum and housed in cages with controlled sleep/wake cycle were used for the in vivo experimentation. Before the start of the experimentation, the animals were subjected to an acclimatization period of one week considering all the experimental procedures and protocols, compliant with the principles of care and welfare of laboratory animals approved by the Italian Ministry of Health and European directives (Italian Legislative Decree 2014/26 and EU Directive 2010/63) and by the OPBA of the University of Messina. […]
(§2) The animals were euthanized 14 days after the start of the experimentation. […] Specifically, the DHT levels were analyzed in the plasma samples with the commercially available Enzyme-linked Immunosorbent Assay (ELISA) (My BioSource). The samples were dosed with the microplate reader and the absorbance was read spectrophotometrically at 450 nm. […] The protein expression was quantified by densitometry (BIORAD ChemiDoc™ XRS+software) and normalized to the housekeeping gene β-actin.

5α-red 2 = assay: Western blot of 5α-red 2 in prostate tissue of BPH rats; conditions: per os daily for 14 days, co-micronized PEA-Baicalein 10 mg/kg, um-PEA 9 mg/kg, Baicalein 1 mg/kg, normalized to β-actin, FIG. 2B
Text: as §1, §2

PSA = assay: Western blot of PSA in prostate tissue of BPH rats; conditions: per os daily for 14 days, co-micronized PEA-Baicalein 10 mg/kg, um-PEA 9 mg/kg, Baicalein 1 mg/kg, vs BPH+vehicle, FIG. 2D
Text: as §1, §2

[1] = tested on: testosterone propionate-induced BPH (Benign Prostatic Hyperplasia); assay: Weight of the prostate in BPH rats; conditions: per os daily for 14 days, co-micronized PEA-Baicalein 10 mg/kg, um-PEA 9 mg/kg, FIG. 3A
Text: as §1, §2

Bcl-2 = assay: Western blot of anti-apoptotic factor Bcl-2 in prostate tissue of BPH rats; conditions: per os daily for 14 days, co-micronized PEA-Baicalein 10 mg/kg, um-PEA 9 mg/kg, Baicalein 1 mg/kg, vs BPH+vehicle, FIG. 3B
Text: as §1, §2

Bax = assay: Western blot of pro-apoptotic factor Bax in prostate tissue of BPH rats; conditions: per os daily for 14 days, co-micronized PEA-Baicalein 10 mg/kg, um-PEA 9 mg/kg, Baicalein 1 mg/kg, vs BPH+vehicle, FIG. 3C
Text: as §1, §2

AR = assay: Western blot of AR in prostate tissue of BPH rats; conditions: per os daily for 14 days, co-micronized PEA-Baicalein 10 mg/kg, um-PEA 9 mg/kg, Baicalein 1 mg/kg, vs BPH+vehicle, FIG. 2C
Text: as §1, §2

SMILES: CCCCCCCCCCCCCCCC(=O)NCCO [um-PEA, Palmitoylethanolamide]
- Serum levels of DHT (DHT): more than the um-PEA (9 mg/kg), significantly reduces serum DHT
- Expression of the 5α-red 2 protein in prostate tissue (WB densitometry) (5α-red 2): more than the um-PEA alone at 9 mg/kg, significantly reduces the expression of the enzyme 5α-red 2
- Expression (tissue levels) of PSA (WB densitometry) (PSA): significantly greater and clearer effect, with respect to um-PEA alone
- Weight of the prostate [1]: progressive decrease in prostate weight
- Levels of the anti-apoptotic factor Bcl-2 (WB densitometry) (Bcl-2): decidedly minor effect and with lower statistical significance
- Expression of the pro-apoptotic factor Bax (WB densitometry) (Bax): decidedly minor effect and with lower statistical significance

SMILES: O=c1cc(-c2ccccc2)oc2cc(O)c(O)c(O)c12 [Baicalein, 5,6,7-trihydroxyflavone]
- Serum levels of DHT (DHT): markedly elevated
- Expression of the 5α-red 2 protein in prostate tissue (WB densitometry) (5α-red 2): not capable of reducing the expression of such an enzyme
- Expression (tissue levels) of AR (WB densitometry) (AR): did not bring significant changes
- Expression (tissue levels) of PSA (WB densitometry) (PSA): did not bring significant changes
- Levels of the anti-apoptotic factor Bcl-2 (WB densitometry) (Bcl-2): did not show a statistically significant change
- Expression of the pro-apoptotic factor Bax (WB densitometry) (Bax): did not show a statistically significant change
